Measured values: patent publication US9382244B2, “7-azaindole-2,7-naphthyridine derivative for the treatment of tumours” (Merck Patent GmbH, priority 2012, dated 2016)

What was measured:
[1] = target: T1, TGF-beta kinase ALK5 (GST-ALK5) (Homo sapiens, UniProt P36897); assay: Test for the inhibition of ALK-5 (flashplate kinase assay); type: biochemical; details: enzymatic; GST-ALK5, GST-SMAD2 substrate; read-out: IC50 [nM] [TGF-beta] enzym. ALK5
T1 sequence (P36897 34-503): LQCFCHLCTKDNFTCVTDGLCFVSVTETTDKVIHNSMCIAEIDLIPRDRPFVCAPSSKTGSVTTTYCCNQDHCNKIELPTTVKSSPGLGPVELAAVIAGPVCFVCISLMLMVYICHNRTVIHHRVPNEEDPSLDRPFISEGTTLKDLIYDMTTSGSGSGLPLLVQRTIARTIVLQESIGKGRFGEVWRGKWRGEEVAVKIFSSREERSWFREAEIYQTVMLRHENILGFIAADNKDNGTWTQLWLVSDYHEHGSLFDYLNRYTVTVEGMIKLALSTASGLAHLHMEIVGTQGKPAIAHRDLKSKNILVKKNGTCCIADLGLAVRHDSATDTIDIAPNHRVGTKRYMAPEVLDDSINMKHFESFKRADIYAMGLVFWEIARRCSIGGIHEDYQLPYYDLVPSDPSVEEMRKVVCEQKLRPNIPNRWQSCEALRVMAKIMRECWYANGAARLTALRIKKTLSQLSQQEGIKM
Experimental: Test for the Inhibition of ALK-5
The experimental batches are carried out in a flashplate system with 384 wells/microtitre plate.
In each case, 31.2 nM of GST-ALK5, 439 nM of GST-SMAD2 and 3 mM of ATP (with 0.3 μCi of 33P-ATP/well) in a total volume of 35 μl of buffer (20 mM HEPES, 10 mM MgCl2, 5 mM MnCl2, 1 mM DTT, 0.1% of BSA, pH 7.4) per well are incubated without or with test substance at 5 to 10 different concentrations at 30 C for 45 min. The reaction is stopped using 25 μl of 200 mM EDTA solution and filtered off with suction after 30 min at room temperature.
The wells are washed 3 times with 100 μl of 0.9% aqueous NaCl solution, and the residual radioactivity is measured in a TopCount instrument (Perkin-Elmer). The IC50 values are calculated using the RS1 software.
The radioactivity (decompositions per minute) of the blank value (no use of test substance in the presence of 100 nM staurosporine) is subtracted from all other radioactivity values. The controls (kinase activity without test substance) are set equal to 100 percent and all other radioactivity values (after subtracting the blank value) are expressed set in relation thereto (for example in % of the control).
IC50 values (concentration of the test substance at 50% inhibition) are determined with the aid of statistics programmes, such as, for example, RS1.

[2] = tested on: TGF-beta-mediated growth inhibition, lung epithelial cell line Mv1Lu; assay: Cellular TGF-beta assay: elimination of TGF-beta-mediated growth inhibition; type: cell-based
Experimental: In-Vitro (Enzyme) Assay for Determination of the Efficacy of the Inhibitors of the Inhibition of TGF-Beta-Mediated Effects
As an example, the ability of the inhibitors to eliminate TGF-beta-mediated growth inhibition is tested.
Cells of the lung epithelial cell line Mv1Lu are sown in a defined cell density in a 96-well microtitre plate and cultivated overnight under standard conditions. Next day, the medium is replaced by medium which comprises 0.5% of FCS and 1 ng/ml of TGF-beta, and the test substances are added in defined concentrations, generally in the form of dilution series with 5-fold steps. The concentration of the solvent DMSO is constant at 0.5%. After a further two days, Crystal Violet staining of the cells is carried out. After extraction of the Crystal Violet from the fixed cells, the absorption is measured spectrophotometrically at 550 nm. It can be used as a quantitative measure of the adherent cells present and thus of the cell proliferation during the culture.

[3] = target: T2, Human ALK1 (Homo sapiens, UniProt P37023); assay: Test for the inhibition of ALK-1; type: biochemical; details: Human ALK1, casein substrate, ATP 10 μM
T2 construct: purchased ALK1
Experimental: Test for the Inhibition of ALK-1
(Serine/threonine-protein kinase receptor R3, activin receptor-like kinase 1, ALK-1, TGF-B superfamily receptor type I, TSR-I, SKR3, ACVRLK1)
Substrate: Casein, 20 mg/ml

T2 sequence (P37023 22-503): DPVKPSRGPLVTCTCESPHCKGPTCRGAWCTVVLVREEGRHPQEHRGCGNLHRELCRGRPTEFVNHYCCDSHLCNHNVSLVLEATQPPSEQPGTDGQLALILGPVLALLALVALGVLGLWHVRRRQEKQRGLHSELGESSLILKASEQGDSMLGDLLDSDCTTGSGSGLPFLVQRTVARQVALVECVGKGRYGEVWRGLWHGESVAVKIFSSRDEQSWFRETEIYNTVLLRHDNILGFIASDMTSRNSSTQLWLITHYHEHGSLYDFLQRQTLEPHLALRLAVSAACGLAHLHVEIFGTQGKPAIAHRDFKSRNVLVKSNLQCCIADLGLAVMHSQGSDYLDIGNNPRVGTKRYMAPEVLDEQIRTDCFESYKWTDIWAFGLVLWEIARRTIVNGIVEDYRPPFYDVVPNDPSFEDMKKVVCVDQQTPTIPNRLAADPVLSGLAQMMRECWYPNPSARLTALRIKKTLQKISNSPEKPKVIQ

IC50 [1]	IC50 [3]	Compound	IC50 [2]
13 nM		Nc1ncc(-c2c[nH]c3ncccc23)c2ccncc12 [Compound A24]	72 nM
4.6 nM	79 nM	Cc1[nH]c2ncccc2c1-c1cnc(N)c2cnccc12 [4-(2-methyl-1H-pyrrolo[2,3-b]pyridin-3-yl)-2,7-naphthyridin-1-ylamine]	28 nM
16 nM	200 nM	Cc1[nH]c2ncccc2c1-c1nccc2c(N)nccc12 [Compound A13]	160 nM
43 nM		Nc1nccc2c(-c3c[nH]c4ncccc34)nccc12 [Compound A32]	770 nM
